# Assay results reported in US20050265923A1, “Embolus therapy using insoluble microparticles or vesicles containing contrast agents” (priority 1997, published 2005).
row,melting point,SMILES
1,280 to 290 °C (dec.),"CCOC(=O)c1c(I)c(NC(C)=O)c(I)c(NC(C)=O)c1I [NC 8883, Ethyl 3,5-diacetamido-2,4,6-triiodobenzoate]"
2,269.5 to 270.5 °C (dec.),"CCOC(=O)COC(=O)c1c(I)c(NC(C)=O)c(I)c(NC(C)=O)c1I [NC 12901, Ethyl (3,5-diacetamido-2,4,6-triiodobenzoyloxy)acetate]"
